One compound from ChEMBL document CHEMBL4507319 (2021) can be followed below.

The target of assay [1] is Serine/threonine-protein kinase 25 (Homo sapiens) (UniProt O00506). Description: STK25(h) Eurofins kinase panel. Particulars: Compound concentration 1.0 uM.
The next assay has as its system IMR-32. Description: IMR-32 cell line Proliferation assay. Format: functional, Homo sapiens. The following applies: time 6 day.
For assay [2], the target named is T1, Tyrosine-protein kinase Tec (Homo sapiens) (UniProt P42680).
T1 sequence (whole entry): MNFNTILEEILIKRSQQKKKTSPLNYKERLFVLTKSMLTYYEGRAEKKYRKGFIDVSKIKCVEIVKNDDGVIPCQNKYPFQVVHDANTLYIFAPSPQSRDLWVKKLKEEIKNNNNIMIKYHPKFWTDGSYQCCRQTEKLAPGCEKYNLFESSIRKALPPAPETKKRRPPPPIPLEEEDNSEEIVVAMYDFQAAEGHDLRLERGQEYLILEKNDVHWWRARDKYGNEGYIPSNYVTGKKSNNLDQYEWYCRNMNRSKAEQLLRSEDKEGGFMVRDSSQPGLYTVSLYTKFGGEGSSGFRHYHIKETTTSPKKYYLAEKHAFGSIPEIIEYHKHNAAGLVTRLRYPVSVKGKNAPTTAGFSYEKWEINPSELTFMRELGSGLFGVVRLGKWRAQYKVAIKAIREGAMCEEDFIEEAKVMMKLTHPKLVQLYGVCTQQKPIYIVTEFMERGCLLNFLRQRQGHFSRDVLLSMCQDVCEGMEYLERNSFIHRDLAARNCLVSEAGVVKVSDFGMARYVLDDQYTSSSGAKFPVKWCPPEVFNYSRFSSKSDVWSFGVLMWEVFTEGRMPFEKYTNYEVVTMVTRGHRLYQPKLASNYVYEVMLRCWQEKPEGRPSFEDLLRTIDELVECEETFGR
Description: Tec(h) activated Eurofins kinase panel. Particulars: Compound concentration 1.0 uM.

Assay [3] deals with T2, MAP/microtubule affinity-regulating kinase 4 (Homo sapiens) (UniProt Q96L34).
T2 sequence (whole entry): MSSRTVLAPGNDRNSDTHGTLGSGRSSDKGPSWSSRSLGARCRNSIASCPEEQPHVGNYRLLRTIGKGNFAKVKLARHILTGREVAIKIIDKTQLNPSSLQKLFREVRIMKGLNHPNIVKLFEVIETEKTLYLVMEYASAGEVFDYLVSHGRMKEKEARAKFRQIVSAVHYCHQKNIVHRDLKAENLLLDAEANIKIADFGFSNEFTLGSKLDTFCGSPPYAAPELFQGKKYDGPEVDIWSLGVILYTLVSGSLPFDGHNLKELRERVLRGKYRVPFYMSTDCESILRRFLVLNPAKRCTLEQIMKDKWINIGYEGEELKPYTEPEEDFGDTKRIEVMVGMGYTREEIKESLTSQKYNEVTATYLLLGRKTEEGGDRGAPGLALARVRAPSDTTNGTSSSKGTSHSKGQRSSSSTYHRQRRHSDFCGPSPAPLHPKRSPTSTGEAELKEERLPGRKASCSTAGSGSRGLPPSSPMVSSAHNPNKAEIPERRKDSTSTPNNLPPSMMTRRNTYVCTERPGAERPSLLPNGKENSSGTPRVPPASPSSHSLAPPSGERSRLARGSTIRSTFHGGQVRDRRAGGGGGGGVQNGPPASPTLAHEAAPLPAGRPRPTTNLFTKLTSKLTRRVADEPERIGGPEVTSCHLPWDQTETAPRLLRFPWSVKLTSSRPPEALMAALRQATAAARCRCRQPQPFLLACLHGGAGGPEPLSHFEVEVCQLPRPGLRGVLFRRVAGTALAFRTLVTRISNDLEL
The assay is described as follows: MARK4(h) Eurofins kinase panel. Particulars: Compound concentration 1.0 uM.

Assay [4] deals with SRSF protein kinase 1 (Homo sapiens) (UniProt Q96SB4). The assay is described as follows: SRPK1(h) Eurofins kinase panel. The following applies: Compound concentration 1.0 uM.
Chain of SRSF protein kinase 1 (Homo sapiens) (Q96SB4 whole entry): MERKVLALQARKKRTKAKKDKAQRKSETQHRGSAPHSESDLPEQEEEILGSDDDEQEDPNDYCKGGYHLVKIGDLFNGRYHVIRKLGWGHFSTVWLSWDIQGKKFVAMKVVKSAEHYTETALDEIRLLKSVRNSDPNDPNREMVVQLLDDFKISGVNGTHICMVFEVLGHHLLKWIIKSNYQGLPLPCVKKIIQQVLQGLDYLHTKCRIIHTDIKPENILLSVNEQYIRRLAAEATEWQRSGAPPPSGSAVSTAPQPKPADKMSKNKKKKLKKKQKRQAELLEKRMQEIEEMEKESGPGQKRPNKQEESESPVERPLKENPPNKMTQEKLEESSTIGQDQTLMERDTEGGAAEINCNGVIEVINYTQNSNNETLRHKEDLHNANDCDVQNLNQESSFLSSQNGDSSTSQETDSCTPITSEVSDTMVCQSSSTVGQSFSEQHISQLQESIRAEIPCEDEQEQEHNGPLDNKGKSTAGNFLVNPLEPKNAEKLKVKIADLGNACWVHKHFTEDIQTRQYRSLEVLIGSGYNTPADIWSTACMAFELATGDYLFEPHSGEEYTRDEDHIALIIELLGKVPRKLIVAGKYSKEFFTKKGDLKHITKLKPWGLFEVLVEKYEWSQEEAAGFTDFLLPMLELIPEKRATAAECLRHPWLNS
For assay [5], the target named is Calcium/calmodulin-dependent protein kinase type II subunit delta (Homo sapiens) (UniProt Q13557). Description: CaMKIIdelta(h) Eurofins kinase panel. The following applies: Compound concentration 1.0 uM.
Chain of Calcium/calmodulin-dependent protein kinase type II subunit delta (Homo sapiens) (Q13557 whole entry): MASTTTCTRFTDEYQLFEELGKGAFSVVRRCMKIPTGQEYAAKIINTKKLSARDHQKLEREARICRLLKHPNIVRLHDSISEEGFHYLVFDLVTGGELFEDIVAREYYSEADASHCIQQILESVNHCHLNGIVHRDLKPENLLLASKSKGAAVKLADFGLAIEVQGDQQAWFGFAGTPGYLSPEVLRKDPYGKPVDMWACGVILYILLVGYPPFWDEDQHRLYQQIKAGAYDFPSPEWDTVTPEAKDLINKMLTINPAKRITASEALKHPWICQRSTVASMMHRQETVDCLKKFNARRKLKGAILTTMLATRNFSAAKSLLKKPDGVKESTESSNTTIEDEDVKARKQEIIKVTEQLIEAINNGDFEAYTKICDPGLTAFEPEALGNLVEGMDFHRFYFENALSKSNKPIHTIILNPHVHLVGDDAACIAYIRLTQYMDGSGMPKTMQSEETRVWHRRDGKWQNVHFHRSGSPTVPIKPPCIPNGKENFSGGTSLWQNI
The target in assay [6] is Fibroblast growth factor receptor 2 (Homo sapiens) (UniProt P21802). Description: FGFR2(h) Eurofins kinase panel. Particulars: Compound concentration 1.0 uM.
Chain of Fibroblast growth factor receptor 2 (Homo sapiens) (P21802 22-821 limits assumed): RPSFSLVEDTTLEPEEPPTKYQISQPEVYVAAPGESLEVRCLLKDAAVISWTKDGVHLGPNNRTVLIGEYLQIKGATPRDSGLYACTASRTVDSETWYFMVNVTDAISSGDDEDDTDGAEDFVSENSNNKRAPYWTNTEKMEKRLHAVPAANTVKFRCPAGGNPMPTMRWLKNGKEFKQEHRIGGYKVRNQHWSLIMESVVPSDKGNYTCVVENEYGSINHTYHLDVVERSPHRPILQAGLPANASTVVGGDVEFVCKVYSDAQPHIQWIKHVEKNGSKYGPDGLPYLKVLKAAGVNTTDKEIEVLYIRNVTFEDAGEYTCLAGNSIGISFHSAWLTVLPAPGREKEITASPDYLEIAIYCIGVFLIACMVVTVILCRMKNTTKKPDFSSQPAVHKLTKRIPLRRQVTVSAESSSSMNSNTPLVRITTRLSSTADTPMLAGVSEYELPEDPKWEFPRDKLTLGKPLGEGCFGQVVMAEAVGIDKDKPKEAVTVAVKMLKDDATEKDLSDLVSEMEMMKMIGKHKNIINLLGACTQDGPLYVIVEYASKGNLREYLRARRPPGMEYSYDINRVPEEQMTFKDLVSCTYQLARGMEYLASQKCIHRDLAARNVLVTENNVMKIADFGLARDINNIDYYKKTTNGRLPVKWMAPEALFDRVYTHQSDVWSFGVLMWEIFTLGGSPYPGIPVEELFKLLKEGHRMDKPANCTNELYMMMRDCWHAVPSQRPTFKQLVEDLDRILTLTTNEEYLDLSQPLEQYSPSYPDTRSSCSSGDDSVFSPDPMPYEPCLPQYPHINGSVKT
The target in assay [7] is Serine/threonine-protein kinase Nek7 (Homo sapiens) (UniProt Q8TDX7). The assay is described as follows: NEK7(h) Eurofins kinase panel. Particulars: Compound concentration 1.0 uM.
Chain of Serine/threonine-protein kinase Nek7 (Homo sapiens) (Q8TDX7 whole entry, looked up): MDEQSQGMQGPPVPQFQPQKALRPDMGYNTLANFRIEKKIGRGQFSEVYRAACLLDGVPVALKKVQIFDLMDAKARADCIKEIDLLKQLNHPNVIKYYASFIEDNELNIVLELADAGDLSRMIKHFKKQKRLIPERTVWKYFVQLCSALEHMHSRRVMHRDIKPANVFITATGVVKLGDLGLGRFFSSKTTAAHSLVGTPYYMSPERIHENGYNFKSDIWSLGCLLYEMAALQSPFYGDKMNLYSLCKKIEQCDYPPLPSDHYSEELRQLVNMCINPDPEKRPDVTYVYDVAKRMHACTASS
For assay [8], the target named is Vascular endothelial growth factor receptor 3 (Homo sapiens) (UniProt P35916). The assay is described as follows: Flt4(h) Eurofins kinase panel. The following applies: Compound concentration 1.0 uM.
The next assay relates to JJN-3. The assay is described as follows: JJN3 cell line Proliferation assay. Format: functional, Homo sapiens. The following applies: time 3 day.
For assay [9], the target named is T3, Serine/threonine-protein kinase STK11 (Homo sapiens) (UniProt Q15831).
T3 sequence (whole entry): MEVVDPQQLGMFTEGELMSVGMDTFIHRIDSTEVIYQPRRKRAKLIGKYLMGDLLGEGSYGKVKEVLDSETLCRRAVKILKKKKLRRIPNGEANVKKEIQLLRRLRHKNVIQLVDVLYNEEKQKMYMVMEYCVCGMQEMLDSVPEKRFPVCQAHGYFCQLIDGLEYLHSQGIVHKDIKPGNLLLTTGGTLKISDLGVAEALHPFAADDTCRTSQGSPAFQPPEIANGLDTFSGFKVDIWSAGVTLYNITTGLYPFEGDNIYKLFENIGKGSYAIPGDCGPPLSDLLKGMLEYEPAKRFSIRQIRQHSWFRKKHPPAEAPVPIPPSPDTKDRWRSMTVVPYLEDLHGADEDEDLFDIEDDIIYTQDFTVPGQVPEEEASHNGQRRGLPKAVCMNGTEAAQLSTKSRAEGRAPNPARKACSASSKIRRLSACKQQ
The assay is described as follows: LKB1(h) Eurofins kinase panel. Particulars: Compound concentration 1.0 uM.

Assay [10] deals with T4, Homeodomain-interacting protein kinase 4 (Homo sapiens) (UniProt Q8NE63).
T4 sequence (whole entry): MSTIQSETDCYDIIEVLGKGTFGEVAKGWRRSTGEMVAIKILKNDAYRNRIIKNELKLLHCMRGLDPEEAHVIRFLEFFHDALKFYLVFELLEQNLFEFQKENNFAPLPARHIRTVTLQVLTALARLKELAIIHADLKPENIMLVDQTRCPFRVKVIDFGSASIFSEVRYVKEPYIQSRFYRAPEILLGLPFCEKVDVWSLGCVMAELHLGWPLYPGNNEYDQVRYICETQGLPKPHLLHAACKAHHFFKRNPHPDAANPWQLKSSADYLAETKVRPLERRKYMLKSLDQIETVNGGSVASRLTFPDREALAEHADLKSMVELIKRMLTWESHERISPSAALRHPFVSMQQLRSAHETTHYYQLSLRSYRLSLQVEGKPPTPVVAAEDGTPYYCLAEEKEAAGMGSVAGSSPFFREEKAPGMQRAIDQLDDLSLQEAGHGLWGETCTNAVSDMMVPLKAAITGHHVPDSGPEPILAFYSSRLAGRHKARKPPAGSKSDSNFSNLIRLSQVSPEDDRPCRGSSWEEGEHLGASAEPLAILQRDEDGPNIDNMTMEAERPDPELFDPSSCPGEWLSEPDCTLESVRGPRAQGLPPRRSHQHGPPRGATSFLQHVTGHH
Description: HIPK4(h) Eurofins kinase panel. Particulars: Compound concentration 1.0 uM.

Assay [11] addresses Serine/threonine-protein kinase MRCK beta (Homo sapiens) (UniProt Q9Y5S2). The assay is described as follows: MRCKbeta(h) Eurofins kinase panel. The following applies: Compound concentration 1.0 uM.
The target in assay [12] is Serine/threonine-protein kinase pim-3 (Homo sapiens) (UniProt Q86V86). The assay is described as follows: Pim-3(h) Eurofins kinase panel. The following applies: Compound concentration 1.0 uM.

Each structure is given as a SMILES string. Where only a bound is given, the exact number is not on record here.

Chain of Serine/threonine-protein kinase 25 (Homo sapiens) (O00506 whole entry, looked up): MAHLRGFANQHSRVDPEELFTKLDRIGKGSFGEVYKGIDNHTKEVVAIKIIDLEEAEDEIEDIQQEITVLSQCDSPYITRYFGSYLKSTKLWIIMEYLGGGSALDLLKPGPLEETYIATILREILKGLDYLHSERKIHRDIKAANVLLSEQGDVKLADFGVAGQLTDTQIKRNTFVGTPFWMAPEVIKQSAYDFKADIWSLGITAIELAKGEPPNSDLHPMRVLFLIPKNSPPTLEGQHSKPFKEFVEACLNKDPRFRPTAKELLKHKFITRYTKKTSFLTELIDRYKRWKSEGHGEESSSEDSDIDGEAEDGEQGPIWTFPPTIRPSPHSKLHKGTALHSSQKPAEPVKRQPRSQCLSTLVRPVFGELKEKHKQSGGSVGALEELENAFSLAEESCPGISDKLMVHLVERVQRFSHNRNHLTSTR
Chain of Serine/threonine-protein kinase MRCK beta (Homo sapiens) (Q9Y5S2 whole entry): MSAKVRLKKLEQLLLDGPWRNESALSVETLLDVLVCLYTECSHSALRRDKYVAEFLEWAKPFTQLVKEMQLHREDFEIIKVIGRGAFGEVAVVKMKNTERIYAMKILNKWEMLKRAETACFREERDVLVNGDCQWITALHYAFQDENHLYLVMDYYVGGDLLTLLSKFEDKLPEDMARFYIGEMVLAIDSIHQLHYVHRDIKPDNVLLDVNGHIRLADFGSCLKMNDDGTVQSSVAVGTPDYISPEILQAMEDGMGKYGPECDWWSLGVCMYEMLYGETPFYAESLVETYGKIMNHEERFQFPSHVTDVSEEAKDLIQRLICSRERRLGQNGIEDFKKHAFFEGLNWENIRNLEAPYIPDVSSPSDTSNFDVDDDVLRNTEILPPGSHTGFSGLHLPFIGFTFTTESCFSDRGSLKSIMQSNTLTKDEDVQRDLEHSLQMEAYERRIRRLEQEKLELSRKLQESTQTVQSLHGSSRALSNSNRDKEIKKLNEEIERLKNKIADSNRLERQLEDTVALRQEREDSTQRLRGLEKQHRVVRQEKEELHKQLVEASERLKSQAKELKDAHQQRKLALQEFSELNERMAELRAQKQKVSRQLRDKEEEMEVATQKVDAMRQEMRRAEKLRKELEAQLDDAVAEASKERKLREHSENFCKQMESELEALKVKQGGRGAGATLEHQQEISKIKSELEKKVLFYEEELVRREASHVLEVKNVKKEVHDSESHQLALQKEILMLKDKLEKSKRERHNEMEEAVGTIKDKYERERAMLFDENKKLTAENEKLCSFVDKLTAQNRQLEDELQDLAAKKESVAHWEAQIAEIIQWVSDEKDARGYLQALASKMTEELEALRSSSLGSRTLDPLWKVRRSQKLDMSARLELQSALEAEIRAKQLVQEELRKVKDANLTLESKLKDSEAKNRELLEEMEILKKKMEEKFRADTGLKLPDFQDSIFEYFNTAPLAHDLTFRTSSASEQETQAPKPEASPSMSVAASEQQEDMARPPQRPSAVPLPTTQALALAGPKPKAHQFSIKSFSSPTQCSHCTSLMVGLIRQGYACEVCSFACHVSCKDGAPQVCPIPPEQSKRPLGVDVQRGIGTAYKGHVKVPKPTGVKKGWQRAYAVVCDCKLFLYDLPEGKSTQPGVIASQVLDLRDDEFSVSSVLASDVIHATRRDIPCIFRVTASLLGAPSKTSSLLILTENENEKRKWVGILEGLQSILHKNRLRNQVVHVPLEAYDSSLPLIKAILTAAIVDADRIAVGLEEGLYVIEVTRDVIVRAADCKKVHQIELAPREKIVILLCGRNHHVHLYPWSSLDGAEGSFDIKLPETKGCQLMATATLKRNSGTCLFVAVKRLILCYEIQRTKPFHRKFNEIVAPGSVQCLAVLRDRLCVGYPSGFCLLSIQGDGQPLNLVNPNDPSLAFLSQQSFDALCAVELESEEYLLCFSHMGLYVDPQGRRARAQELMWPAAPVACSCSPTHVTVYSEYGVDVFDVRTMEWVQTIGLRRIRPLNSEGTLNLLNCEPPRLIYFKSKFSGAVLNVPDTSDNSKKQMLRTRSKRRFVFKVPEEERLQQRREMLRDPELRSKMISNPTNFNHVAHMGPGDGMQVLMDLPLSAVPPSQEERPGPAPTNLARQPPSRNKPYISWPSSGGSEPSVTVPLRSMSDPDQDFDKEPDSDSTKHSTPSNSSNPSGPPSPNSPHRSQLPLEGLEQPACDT

In the case of `CCc1ccccc1C(=O)Nc1n[nH]c2c(C)c(F)c(C3C(C#N)=C(C)N(C)C(C)=C3C#N)cc12` [BAY-3827], the % residual kinase activity in assay [1] was 43%; in assay [2] it was 100%; in assay [3], 65%; in [4] it was 84%; in assay [5], 75%; in assay [6], 58%. Further, the % residual kinase activity in [7] is 112%; in [8], 73%; in assay [9], 90%; in assay [10], 105%; in assay [11] it was 109%; in assay [12], 108%. For the same compound, the “Cell Proliferation IC50” value is over 11.5 µM in the assay with IMR-32 and over 20 µM in the assay on JJN-3.
